Test results from ChEMBL document CHEMBL4351028, “Benzoyl indoles with metabolic stability as reversal agents for ABCG2-mediated multidrug resistance” (Eur J Med Chem, 2019).
The source made the active and inactive calls. No cut-off for these calls is given here.

Key:
[1] = test system: NCI-H460; test: Cytotoxicity against human NCI-H460 cells assessed as inhibition of cell viability incubated for 2 hrs by MTT assay; format: cell-based; conditions: NCI-H460, 2 h
[2] = Cytotoxicity against human NCI-H460/MX20 cells assessed as concentration that causes inhibition of cell viability by <=20% incubated for 24 hrs by MTT assay; format: cell-based
[3] = Cytotoxicity against human NCI-H460/MX20 cells assessed as inhibition of cell viability incubated for 2 hrs by MTT assay; format: cell-based; conditions: NCI-H460/MX20, 2 h
[4] = test system: NCI-H460; test: Cytotoxicity against human NCI-H460 cells assessed as concentration that causes inhibition of cell viability by <=20% incubated for 24 hrs by MTT assay; format: cell-based; conditions: nci-h460, 24 h
[5] = biological target: T1, Broad substrate specificity ATP-binding cassette transporter ABCG2 (Homo sapiens, UniProt Q9UNQ0); test: (§1) Reversal of ABCG2-mediated multidrug resistance in human NCI-H460/MX20 cells assessed as potentiation of mitoxantrone-induced cytotoxicity by measuring inhibition of cell proliferation at 25 uM pretreated for 2 hrs followed by mitoxantrone addition and measured after 44 hrs by MTT assay (reference value: 24 +/- 3%); format: cell-based; conditions: for inhibition (INH): 25 µM
T1 sequence (Q9UNQ0 whole entry): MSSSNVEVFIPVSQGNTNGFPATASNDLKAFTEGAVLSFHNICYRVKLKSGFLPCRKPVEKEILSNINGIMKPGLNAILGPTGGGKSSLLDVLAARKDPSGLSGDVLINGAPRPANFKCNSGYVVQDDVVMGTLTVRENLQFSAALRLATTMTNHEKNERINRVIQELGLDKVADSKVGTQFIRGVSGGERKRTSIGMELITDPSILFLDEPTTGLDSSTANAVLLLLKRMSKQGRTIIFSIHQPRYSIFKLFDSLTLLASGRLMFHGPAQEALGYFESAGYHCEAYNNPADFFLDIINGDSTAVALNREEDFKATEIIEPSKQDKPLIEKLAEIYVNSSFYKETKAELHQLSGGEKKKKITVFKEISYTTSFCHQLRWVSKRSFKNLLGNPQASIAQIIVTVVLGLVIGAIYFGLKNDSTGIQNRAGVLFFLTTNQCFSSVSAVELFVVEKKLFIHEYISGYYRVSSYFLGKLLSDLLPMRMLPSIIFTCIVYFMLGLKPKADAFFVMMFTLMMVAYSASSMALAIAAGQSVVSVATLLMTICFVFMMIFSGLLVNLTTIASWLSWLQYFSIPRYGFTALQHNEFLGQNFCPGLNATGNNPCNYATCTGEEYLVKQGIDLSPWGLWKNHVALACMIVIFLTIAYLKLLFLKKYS

[6] = biological target: T1, Broad substrate specificity ATP-binding cassette transporter ABCG2; test: as §1, with “1” for “25”; format: cell-based
[7] = biological target: T1, Broad substrate specificity ATP-binding cassette transporter ABCG2; test: Reversal of ABCG2-mediated multidrug resistance in human NCI-H460/MX20 cells assessed as potentiation of mitoxantrone-induced cytotoxicity by measuring inhibition of cell proliferation pretreated for 2 hrs followed by mitoxantrone addition and measured after 44 hrs by MTT assay; format: cell-based
[8] = biological target: T1, Broad substrate specificity ATP-binding cassette transporter ABCG2; test: as §1, with “10” for “25”; format: cell-based; conditions: for inhibition (INH): 10 µM
[9] = Metabolic stability in human liver microsomes assessed as compound remaining at 100 uM incubated for 1 hr by HPLC analysis; format: ADME, Microsome; conditions: read-out: Stability
[10] = test system: HEK293; test: Reversal of ABCG2 482-G2 mutant (unknown origin) expressed in HEK293 cells-mediated multidrug resistance assessed as potentiation of mitoxantrone-induced cytotoxicity at 5 uM pretreated for 2 hrs followed by mitoxantrone addition and measured after 44 hrs by MTT assay; format: cell-based; conditions: Homo sapiens
[11] = test system: HEK293; test: Reversal of ABCG2 482-T7 mutant (unknown origin) expressed in HEK293 cells-mediated multidrug resistance assessed as potentiation of mitoxantrone-induced cytotoxicity at 5 uM pretreated for 2 hrs followed by mitoxantrone addition and measured after 44 hrs by MTT assay; format: cell-based; conditions: Homo sapiens

Structure (SMILES): COc1ccc(C(=O)c2c(OC)ccc3cc(OC)ccc23)c(OC)c1
- IC50 ([1]; read-out: IC50): 86.2 µM
- Activity [2]: 10 µM
- IC50 [3]: 84 µM
- Activity [4]: 10 µM
- inhibition (INH) [5]: Not Active

Structure (SMILES): COc1ccc2[nH]cc(C(=O)c3cc(OC)c(OC)c(OC)c3)c2c1
- IC50 ([1]; read-out: IC50): 4.9 µM
- Activity [2]: 1 µM
- IC50 [3]: 5.82 µM
- Activity [4]: 1 µM
- inhibition (INH) [6]: Active

Structure (SMILES): COc1ccc(C(=O)c2ccc3[nH]cc(C(=O)c4ccc(OC)cc4OC)c3c2OC)c(OC)c1
- inhibition (INH) [7]: Dose-dependent effect
- IC50 ([1]; read-out: IC50): > 100 µM
- Activity [2]: 25 µM
- IC50 [3]: 68.7 µM
- Activity [4]: 25 µM
- inhibition at 25 µM [5]: > 87%

Structure (SMILES): O=C(c1cccc(O)c1)c1c[nH]c2ccc(O)cc12
- IC50 ([1]; read-out: IC50): > 100 µM
- Activity [2]: 25 µM
- IC50 [3]: > 100 µM
- Activity [4]: 25 µM

Structure (SMILES): O=C(c1ccc(O)cc1O)c1c[nH]c2c(O)cccc12
- IC50 ([1]; read-out: IC50): > 100 µM
- Activity [2]: 10 µM
- IC50 [3]: > 100 µM
- Activity [4]: 10 µM

Structure (SMILES): COc1cc(C(=O)c2c[nH]c3cccc(OC)c23)cc(OC)c1OC
- IC50 ([1]; read-out: IC50): > 100 µM
- Activity [2]: 1 µM
- IC50 [3]: > 100 µM
- Activity [4]: 1 µM
- inhibition (INH) [6]: Active

Structure (SMILES): COc1ccc(C(=O)c2c[nH]c3cccc(OC)c23)cc1
- IC50 ([1]; read-out: IC50): > 100 µM
- Activity [2]: 10 µM
- IC50 [3]: > 100 µM
- Activity [4]: 10 µM
- inhibition (INH) [8]: Active

Structure (SMILES): O=C(c1cc(O)c(O)c(O)c1)c1c[nH]c2cccc(O)c12
- IC50 ([1]; read-out: IC50): > 100 µM
- Activity [2]: 25 µM
- IC50 [3]: > 100 µM
- Activity [4]: 25 µM

Structure (SMILES): O=C(c1ccc(O)cc1)c1c[nH]c2ccc(O)cc12
- IC50 ([1]; read-out: IC50): > 100 µM
- Activity [2]: 25 µM
- IC50 [3]: > 100 µM
- Activity [4]: 25 µM
- inhibition (INH) [5]: Active

Structure (SMILES): O=C1c2c(O)ccc(O)c2C(=O)c2c(NCCNCCO)ccc(NCCNCCO)c21 [MITOXANTRONE]
- IC50 [1]: 0.36 µM
- IC50 [3]: 40.6 µM

Structure (SMILES): COc1ccc(C(=O)c2c[nH]c3ccc(OC)cc23)c(OC)c1
- IC50 ([1]; read-out: IC50): > 100 µM
- Activity [2]: 25 µM
- IC50 [3]: > 100 µM
- Activity [4]: 25 µM
- inhibition (INH) [5]: Active

Structure (SMILES): O=C(c1ccccc1O)c1c[nH]c2ccc(O)cc12
- inhibition (INH) [7]: Dose-dependent effect
- IC50 ([1]; read-out: IC50): > 100 µM
- Activity [2]: 25 µM
- IC50 [3]: > 100 µM
- Activity [4]: 25 µM
- inhibition at 25 µM [5]: > 87%

Structure (SMILES): COc1ccc(C(=O)c2c[nH]c3c(OC)cccc23)c(OC)c1
- IC50 ([1]; read-out: IC50): > 100 µM
- Activity [2]: 10 µM
- IC50 [3]: > 100 µM
- Activity [4]: 10 µM
- inhibition (INH) [8]: Active

Structure (SMILES): O=C(c1c(O)cccc1O)c1c[nH]c2ccc(O)cc12
- IC50 ([1]; read-out: IC50): > 100 µM
- Activity [2]: 10 µM
- IC50 [3]: > 100 µM
- Activity [4]: 10 µM

Structure (SMILES): COc1cccc(C(=O)c2c[nH]c3ccc(OC)cc23)c1
- inhibition (INH) [7]: Dose-dependent effect
- IC50 ([1]; read-out: IC50): > 100 µM
- Activity [2]: 10 µM
- IC50 [3]: 53.2 µM
- Activity [4]: 10 µM
- inhibition at 10 µM [8]: > 87%

Structure (SMILES): COc1ccc2[nH]cc(C(=O)c3c(OC)cccc3OC)c2c1
- IC50 ([1]; read-out: IC50): > 100 µM
- Activity [2]: 1 µM
- IC50 [3]: > 100 µM
- Activity [4]: 1 µM
- inhibition (INH) [6]: Active

Structure (SMILES): O=C(c1ccc(O)cc1O)c1c[nH]c2cccc(O)c12
- inhibition (INH) [7]: Dose-dependent effect
- IC50 ([1]; read-out: IC50): > 100 µM
- Activity [2]: 25 µM
- IC50 [3]: > 100 µM
- Activity [4]: 25 µM
- inhibition at 25 µM [5]: > 87%

Structure (SMILES): COc1ccc(C(=O)c2c[nH]c3cccc(OC)c23)c(OC)c1
- IC50 ([1]; read-out: IC50): > 100 µM
- Activity [2]: 25 µM
- IC50 [3]: > 100 µM
- Activity [4]: 25 µM
- inhibition (INH) [5]: Active

Structure (SMILES): O=C(c1ccc(O)cc1)c1ccc2[nH]cc(C(=O)c3ccc(O)cc3)c2c1O
- IC50 ([1]; read-out: IC50): > 100 µM
- Activity [2]: 25 µM
- IC50 [3]: > 100 µM
- Activity [4]: 25 µM

Structure (SMILES): O=C(c1cc(O)c(O)c(O)c1)c1c[nH]c2ccc(O)cc12
- IC50 ([1]; read-out: IC50): > 100 µM
- Activity [2]: 25 µM
- IC50 [3]: > 100 µM
- Activity [4]: 25 µM

Structure (SMILES): O=C(c1ccc(O)cc1)c1c[nH]c2cccc(O)c12
- inhibition (INH) [7]: Dose-dependent effect
- IC50 ([1]; read-out: IC50): > 100 µM
- Activity [2]: 25 µM
- IC50 [3]: > 100 µM
- Activity [4]: 25 µM
- inhibition at 25 µM [5]: > 87%

Structure (SMILES): O=C(c1ccc(O)cc1O)c1c[nH]c2ccc(O)cc12
- IC50 ([1]; read-out: IC50): > 100 µM
- Activity [2]: 25 µM
- IC50 [3]: > 100 µM
- Activity [4]: 25 µM
- inhibition (INH) [5]: Active

Structure (SMILES): COc1ccc2[nH]cc(C(=O)c3ccccc3OC)c2c1
- IC50 ([1]; read-out: IC50): 46.2 µM
- Activity [2]: 1 µM
- IC50 [3]: 61.9 µM
- Activity [4]: 1 µM
- inhibition (INH) [6]: Active

Structure (SMILES): COc1ccc2c3c([nH]c2c1)[C@H](CC(C)C)N1C(=O)[C@H](CCC(=O)OC(C)(C)C)NC(=O)[C@@H]1C3
- remaining at 1 h, 100 µM [9]: 23%
- Activity [10]: Active
- Activity [11]: Active
